Results reported in article PMC8113758, “Functional Characterization of Sex Pheromone Neurons and Receptors in the Armyworm, Mythimna separata (Walker)” (Frontiers in Neuroanatomy, 2021).
pEC50: −log10 of the molar value.

Experiments:
Assay in all cases: two-electrode voltage clamp, Xenopus oocytes, dose-response
Format in all cases: cell-based, Mythimna separata
[1] = test system: T1, MsepPR1
T1 construct: full-length; with MsepOrco

[2] = test system: T2, MsepPR5
T2 construct: full-length; with MsepOrco

[3] = test system: T3, MsepPR6
T3 construct: full-length; with MsepOrco

Q: CCCC/C=C\CCCCCCCC=O [Z9–14:Ald, (Z)-9-tetradecenal] was tested. Which pEC50 [1] did it give?
A: The pEC50 was 4.31.

Q: And the pEC50 [2]?
A: Its pEC50 is 4.52.

Q: With CCCC/C=C\CCCCCCCCOC(C)=O [Z9–14:OAc, (Z)-9-tetradecen-1-yl acetate] as the molecule, how does the pEC50 [3] read?
A: The pEC50 was 6.13.
